In US7429578B2, “Tricyclic inhibitors of poly(ADP-ribose) polymerases” (Agouron Pharmaceuticals, Inc., priority 1999, dated 2008):
Where “and” joins values, the source holds several entries; their conditions need not be identical. Identical values can stand only once.

Columns and labels:
A549 cells = assay: Cytotoxicity potentiation assay (topotecan); format: cell-based; conditions: test compound at 0.4 μM, ratio of IC50 of topotecan alone to IC50 of topotecan with test compound
purified PARP protein = purified PARP protein (Homo sapiens, UniProt P09874); assay: PARP enzyme inhibition assay; format: biochemical; conditions: [32P]NAD+ incorporation, 500 μM NAD+, 25° C.; two values in a cell = tested twice; read-out: Inhibition Constant Ki
purified PARP protein, sequence (P09874 whole entry): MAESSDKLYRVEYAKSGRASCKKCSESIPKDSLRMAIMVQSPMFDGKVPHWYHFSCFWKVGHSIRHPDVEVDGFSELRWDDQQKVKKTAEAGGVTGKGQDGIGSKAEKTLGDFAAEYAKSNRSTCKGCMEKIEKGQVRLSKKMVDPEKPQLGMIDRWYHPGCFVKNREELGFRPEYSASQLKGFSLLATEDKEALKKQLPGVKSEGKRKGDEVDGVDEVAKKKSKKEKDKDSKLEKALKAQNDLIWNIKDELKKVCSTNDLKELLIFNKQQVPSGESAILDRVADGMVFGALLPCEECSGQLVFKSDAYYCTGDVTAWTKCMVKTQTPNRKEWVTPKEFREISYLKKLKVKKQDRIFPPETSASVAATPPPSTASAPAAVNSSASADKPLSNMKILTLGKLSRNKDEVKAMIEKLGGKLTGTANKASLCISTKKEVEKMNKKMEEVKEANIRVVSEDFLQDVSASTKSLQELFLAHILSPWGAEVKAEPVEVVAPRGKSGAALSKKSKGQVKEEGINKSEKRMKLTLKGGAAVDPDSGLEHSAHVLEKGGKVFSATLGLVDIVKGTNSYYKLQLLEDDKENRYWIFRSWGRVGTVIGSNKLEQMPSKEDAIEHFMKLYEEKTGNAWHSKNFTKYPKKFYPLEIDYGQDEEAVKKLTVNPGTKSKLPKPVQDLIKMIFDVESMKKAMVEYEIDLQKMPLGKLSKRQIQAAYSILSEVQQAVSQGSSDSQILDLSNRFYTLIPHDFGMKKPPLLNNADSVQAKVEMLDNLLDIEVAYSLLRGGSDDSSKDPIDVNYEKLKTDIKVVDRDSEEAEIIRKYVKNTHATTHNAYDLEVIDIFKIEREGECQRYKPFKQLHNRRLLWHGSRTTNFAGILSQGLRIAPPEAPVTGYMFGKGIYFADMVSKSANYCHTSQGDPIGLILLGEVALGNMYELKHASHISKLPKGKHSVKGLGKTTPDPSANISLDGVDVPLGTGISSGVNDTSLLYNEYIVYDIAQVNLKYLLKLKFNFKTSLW

Row | Compound | Cytotoxicity Potentiation PF50 (A549 cells) | Ki (purified PARP protein) | melting point
1 | CN(C)Cc1ccc(-c2[nH]c3cccc4c3c2CNC4=O)cc1 [Compound 6] | 2.2 | – | –
2 | O=C1NCCc2c(-c3ccccc3)[nH]c3cccc1c23 [Compound 12, 2-Phenyl-3,4,5,6-tetrahydro-1H-azepino[5,4,3-cd]indol-6-one] | 1.8 | 4.2 nM | –
3 | CN(C)Cc1ccc(-c2[nH]c3cccc4c3c2CCNC4=O)cc1 [Compound 21, 2-(4-(N,N-Dimethylamino)methylphenyl)-3,4,5,6-tetrahydro-1H-azepino[5,4,3-cd]indol-6-one] | 2.4 | – | –
4 | O=C1NCCc2c(-c3ccc(F)cc3)[nH]c3cccc1c23 [Compound 23, 2-(4-Fluorophenyl)-3,4,5,6-tetrahydro-1H-azepino[5,4,3-cd]indol-6-one] | 2.3 | – | –
5 | O=C1NN=Cc2c[nH]c3cccc1c23 [Compound 27, 1,5-Dihydro-[1,2]diazepino[4,5,6-cd]-indol-6-one] | 1.3 | 3.4 nM | –
6 | O=C1NN=C(c2ccccc2)c2c[nH]c3cccc1c23 [Compound 28, 1,5-Dihydro-3-phenyl-[1,2]diazepino[4,5,6-cd]-indol-6-one] | 1 | 4 nM and 3.8 nM | –
7 | O=C1NN=C(CCc2ccccc2)c2c[nH]c3cccc1c23 [Compound 29, 1,5-Dihydro-3-phenethyl-[1,2]diazepino[4,5,6-cd]-indol-6-one] | 1 | 8 nM | –
8 | CNCc1ccc(-c2[nH]c3cc(F)cc4c3c2CCNC4=O)cc1 [IIII, 8-Fluoro-2-(4-methylaminomethyl-phenyl)-1,3,4,5-tetrahydro-azepino[5,4,3-cd]indol-6-one] | 2.6 | – | –
9 | O=C1NCCc2c(-c3cccc(-c4ccccc4)c3)[nH]c3cccc1c23 [RRR, 2-Biphenyl-3-yl-1,3,4,5-tetrahydro-azepino[5,4,3-cd]indol-6-one] | – | 23 nM | 160 to 163 °C
10 | COc1ccc(Cl)cc1-c1[nH]c2cccc3c2c1CCNC3=O [SSS, 2-(5-Chloro-2-methoxy-phenyl)-3,4,5,6-tetrahydro-azepino[5,4,3-cd]indol-6-one] | – | 66 nM | 160 to 162 °C
11 | O=C1NCCc2c(-c3cccc(CN4CCCCC4)c3)[nH]c3cccc1c23 [SS] | – | 14 nM | 235 to 237 °C
12 | Nc1cccc(C#Cc2[nH]c3cccc4c3c2CCNC4=O)c1 [UUU, 2-(3-Amino-phenylethynyl)-1,3,4,5-tetrahydro-azepino[5,4,3-cd]indol-6-one] | – | 11.4 nM | 261 to 262 °C (dec.)
13 | O=C1NCCc2c(-c3ccc(CN4CCCC4)cc3)[nH]c3cccc1c23 [UUUU, 2-(4-Pyrrolidin-1-ylmethylphenyl)-3,4,5,6-tetrahydro-1H-azepino[5,4,3-cd]indol-6-one] | 2.0 | – | –
14 | O=C1NCCc2c(-c3ccc(Cl)c(C(F)(F)F)c3)[nH]c3cccc1c23 [WW, 2-(4-Chloro-3-trifluoromethyl-phenyl)-1,3,4,5-tetrahydro-azepino[5,4,3-cd]indol-6-one] | – | 4.4 nM | 118.5 to 119 °C
15 | O=C(O)c1ccc(-c2[nH]c3cccc4c3c2CCNC4=O)cc1 [WWW, 4-(6-Oxo-3,4,5,6-tetrahydro-1H-azepino[5,4,3-cd]indol-2-yl)-benzoic Acid] | – | 263 nM | 345.5 to 346.5 °C (dec.)
16 | O=C1NCCc2c(-c3ccc4ccccc4c3)[nH]c3cccc1c23 [XX, 2-Naphthalen-2-yl-1,3,4,5-tetrahydro-azepino[5,4,3-cd]indol-6-one] | – | 4.6 nM | 261 to 262 °C
17 | O=C(O)c1[nH]c2cccc3c2c1CCNC3=O [XXX, 6-Oxo-3,4,5,6-tetrahydro-1H-azepino[5,4,3-cd]indole-2-carboxylic Acid] | – | 370 nM | 298 to 299 °C (dec.)
18 | O=C1NCCc2c(-c3cccc(CCO)c3)[nH]c3cccc1c23 [ZZ, 2-[3-(2-Hydroxy-ethyl)-phenyl]-1,3,4,5-tetrahydro-azepino[5,4,3-cd]indol-6-one] | – | 9.7 nM | 187.5 to 188.5 °C
